Test results taken from patent US9815819B2, “Complement pathway modulators and uses thereof” (priority 2012, dated 2017).

Biological target: Recombinant human factor D (Homo sapiens (Human), UniProt P00746)
Assay: Human Complement Factor D Assay: Method 1
Type: biochemical
Conditions: Factor D inhibition, Method 1: 10 nM factor D, 1 hour incubation with compound at room temperature, substrate Z-Lys-thiobenzyl, fluorescence readout; read-out: IC50
Protocol: Recombinant human factor D (expressed in E. coli and purified using standard methods) at 10 nM concentration is incubated with test compound at various concentrations for 1 hour at room temperature in 0.1 M Hepes buffer, pH 7.5, containing 1 mM MgCl2, 1 M NaCl and 0.05% CHAPS. […] IC50 values are calculated from percentage of inhibition of complement factor D-activity as a function of test compound concentration.

Recombinant human factor D, sequence (P00746 26-253): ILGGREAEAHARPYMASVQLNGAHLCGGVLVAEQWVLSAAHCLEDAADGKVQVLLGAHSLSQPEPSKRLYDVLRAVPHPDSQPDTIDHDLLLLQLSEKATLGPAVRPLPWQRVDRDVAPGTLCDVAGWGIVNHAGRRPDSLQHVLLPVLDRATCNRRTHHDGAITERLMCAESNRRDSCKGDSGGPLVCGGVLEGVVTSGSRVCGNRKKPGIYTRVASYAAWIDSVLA

IC50 | Structure (SMILES)
0.066 µM | CC(=O)c1nn(CC(=O)N2[C@@H]3C[C@@H]3C[C@H]2C(=O)N[C@@H]2C[C@@]2(F)c2ccccc2)c2ncccc12 [Example 44, (1R,3S,5R)-2-[2-(3-Acetyl-pyrazolo[3,4-b]pyridin-1-yl)-acetyl]-2-aza-bicyclo[3.1.0] hexane-3-carboxylic acid ((1R,2R)-2-fluoro-2-phenyl-cyclopropyl)-amide]
10.4 µM | CC(=O)c1nn(CC(=O)N2[C@@H]3C[C@@H]3C[C@H]2C(=O)N[C@H]2C[C@]2(F)c2ccccc2)c2ncccc12 [Example 45, (1R,3S,5R)-2-[2-(3-Acetyl-pyrazolo[3,4-b]pyridin-1-yl)-acetyl]-2-aza-bicyclo[3.1.0] hexane-3-carboxylic acid ((1S,2S)-2-fluoro-2-phenyl-cyclopropyl)-amide]
0.032 µM | CC(=O)c1nn(CC(=O)N2[C@@H]3C[C@@H]3C[C@H]2C(=O)N[C@@H]2C[C@@]2(F)c2ccccc2)c2cnccc12 [Example 46, (1R,3S,5R)-2-[2-(3-Acetyl-pyrazolo[3,4-c]pyridin-1-yl)-acetyl]-2-aza-bicyclo[3.1.0] hexane-3-carboxylic acid ((1R,2R)-2-fluoro-2-phenyl-cyclopropyl)-amide]
0.991 µM | CC(=O)c1nn(CC(=O)N2[C@@H]3C[C@@H]3C[C@H]2C(=O)N[C@H]2C[C@]2(F)c2ccccc2)c2cnccc12 [Example 47, (1R,3S,5R)-2-[2-(3-Acetyl-pyrazolo[3,4-c]pyridin-1-yl)-acetyl]-2-aza-bicyclo[3.1.0] hexane-3-carboxylic acid ((1S,2S)-2-fluoro-2-phenyl-cyclopropyl)-amide]
0.03 µM | Cc1cc2c(C(N)=O)nn(CC(=O)N3[C@@H]4C[C@@H]4C[C@H]3C(=O)N[C@@H]3C[C@@]3(F)c3ccccc3)c2cn1 [Example 48, 1-{2-[(1R,3S,5R)-3-((1R,2R)-2-Fluoro-2-phenyl-cyclopropylcarbamoyl)-2-aza-bicyclo[3.1.0]hex-2-yl]-2-oxo-ethyl}-5-methyl-1H-pyrazolo[3,4-c]pyridine-3-carboxylic acid amide]
1.19 µM | Cc1cc2c(C(N)=O)nn(CC(=O)N3[C@@H]4C[C@@H]4C[C@H]3C(=O)N[C@H]3C[C@]3(F)c3ccccc3)c2cn1 [Example 49, 1-{2-[(1R,3S,5R)-3-((1S,2S)-2-Fluoro-2-phenyl-cyclopropylcarbamoyl)-2-aza-bicyclo[3.1.0]hex-2-yl]-2-oxo-ethyl}-5-methyl-1H-pyrazolo[3,4-c]pyridine-3-carboxylic acid amide]
0.225 µM | CC(=O)c1nn(CC(=O)N2[C@@H]3C[C@@H]3C[C@H]2C(=O)N[C@@H]2C[C@H]2c2cccc(Cl)c2)c2ncccc12 [Example 54, (1R,3S,5R)-2-[2-(3-Acetyl-pyrazolo[3,4-b]pyridin-1-yl)-acetyl]-2-aza-bicyclo[3.1.0]hexane-3-carboxylic acid[(1R,2S)-2-(3-chloro-phenyl)-cyclopropyl]-amide]
1.57 µM | CC(=O)c1nn(CC(=O)N2[C@@H]3C[C@@H]3C[C@H]2C(=O)N[C@H]2C[C@@H]2c2cccc(Cl)c2)c2ncccc12 [Example 55, (1R,3S,5R)-2-[2-(3-acetyl-pyrazolo[3,4-b]pyridin-1-yl)-acetyl]-2-aza-bicyclo[3.1.0]hexane-3-carboxylic acid[(1S,2R)-2-(3-chloro-phenyl)-cyclopropyl]-amide]
0.109 µM | CC(=O)c1nn(CC(=O)N2[C@@H]3C[C@@H]3C[C@H]2C(=O)N[C@@H]2C[C@H]2c2cccc(Cl)c2F)c2ncccc12 [Example 56, (1R,3S,5R)-2-[2-(3-Acetyl-pyrazolo[3,4-b]pyridin-1-yl)-acetyl]-2-aza-bicyclo[3.1.0]hexane-3-carboxylic acid [(1R,2S)-2-(3-chloro-2-fluoro-phenyl)-cyclopropyl]-amide]
1.61 µM | CC(=O)c1nn(CC(=O)N2[C@@H]3C[C@@H]3C[C@H]2C(=O)N[C@H]2C[C@@H]2c2cccc(Cl)c2F)c2ncccc12 [Example 57, (1R,3S,5R)-2-[2-(3-Acetyl-pyrazolo[3,4-b]pyridin-1-yl)-acetyl]-2-aza-bicyclo[3.1.0]hexane-3-carboxylic acid [(1S,2R)-2-(3-chloro-2-fluoro-phenyl)-cyclopropyl]-amide]
0.064 µM | CC(=O)c1nn(CC(=O)N2[C@@H]3C[C@@H]3C[C@H]2C(=O)N[C@@H]2C[C@H]2c2ccccc2F)c2ncccc12 [Example 63, (1R,3S,5R)-2-[2-(3-Acetyl-pyrazolo[3,4-b]pyridin-1-yl)-acetyl]-2-aza-bicyclo[3.1.0] hexane-3-carboxylic acid [(1R,2S)-2-(2-fluoro-phenyl)-cyclopropyl]-amide]
0.791 µM | CC(=O)c1nn(CC(=O)N2[C@@H]3C[C@@H]3C[C@H]2C(=O)N[C@H]2C[C@@H]2c2ccccc2F)c2ncccc12 [Example 64, (1R,3S,5R)-2-[2-(3-Acetyl-pyrazolo[3,4-b]pyridin-1-yl)-acetyl]-2-aza-bicyclo[3.1.0] hexane-3-carboxylic acid [(1S,2R)-2-(2-fluoro-phenyl)-cyclopropyl]-amide]
0.03 µM | CC(=O)c1nn(CC(=O)N2[C@@H]3C[C@@H]3C[C@H]2C(=O)N[C@@H]2C[C@H]2c2ccccc2Cl)c2cnccc12 [Example 65, (1R,3S,5R)-2-[2-(3-Acetyl-pyrazolo[3,4-c]pyridin-1-yl)-acetyl]-2-aza-bicyclo[3.1.0] hexane-3-carboxylic acid [(1R,2S)-2-(2-chloro-phenyl)-cyclopropyl]-amide]
0.044 µM | CC(=O)c1nn(CC(=O)N2[C@@H]3C[C@@H]3C[C@H]2C(=O)N[C@@H]2C[C@H]2c2ccccc2Cl)c2ncccc12 [Example 66, (1R,3S,5R)-2-[2-(3-Acetyl-pyrazolo[3,4-b]pyridin-1-yl)-acetyl]-2-aza-bicyclo[3.1.0] hexane-3-carboxylic acid [(1R,2S)-2-(2-chloro-phenyl)-cyclopropyl]-amide]
0.035 µM | NC(=O)c1nn(CC(=O)N2[C@@H]3C[C@@H]3C[C@H]2C(=O)N[C@@H]2C[C@H]2c2ccccc2Cl)c2cnccc12 [Example 67, 1-(2-{(1R,3S,5R)-3-[(1R,2S)-2-(2-Chloro-phenyl)-cyclopropylcarbamoyl]-2-aza-bicyclo[3.1.0]hex-2-yl}-2-oxo-ethyl)-1H-pyrazolo[3,4-c]pyridine-3-carboxylic acid amide]
0.037 µM | CCc1cc2c(C(N)=O)nn(CC(=O)N3[C@@H]4C[C@@H]4C[C@H]3C(=O)N[C@@H]3C[C@H]3c3ccccc3Cl)c2cn1 [Example 68, 1-(2-{(1R,3S,5R)-3-[(1R,2S)-2-(2-Chloro-phenyl)-cyclopropylcarbamoyl]-2-aza-bicyclo[3.1.0]hex-2-yl}-2-oxo-ethyl)-5-ethyl-1H-pyrazolo[3,4-c]pyridine-3-carboxylic acid amide]
0.125 µM | Cc1cc2c(C(N)=O)nn(CC(=O)N3[C@@H]4C[C@@H]4C[C@H]3C(=O)N[C@@H]3C[C@H]3c3ccccc3F)c2cn1 [Example 70, 1-(2-{(1R,3S,5R)-3-[(1R,2S)-2-(2-Fluoro-phenyl)-cyclopropylcarbamoyl]-2-aza-bicyclo[3.1.0]hex-2-yl}-2-oxo-ethyl)-5-methyl-1H-pyrazolo[3,4-c]pyridine-3-carboxylic acid amide]
0.09 µM | Cc1cc2c(C(N)=O)nn(CC(=O)N3C[C@H](F)C[C@H]3C(=O)N[C@@H]3C[C@H]3c3ccccc3F)c2cn1 [Example 71, 1-(2-{(2S,4R)-4-Fluoro-2-[(1R,2S)-2-(2-fluoro-phenyl)-cyclopropylcarbamoyl]-pyrrolidin-1-yl}-2-oxo-ethyl)-5-methyl-1H-pyrazolo[3,4-c]pyridine-3-carboxylic acid amide]
0.309 µM | NC(=O)c1nn(CC(=O)N2C[C@H](F)C[C@H]2C(=O)N[C@@H]2C[C@H]2c2ccc(Cl)cc2)c2cnccc12 [Example 72, 1-(2-{(2S,4R)-2-[(1R,2S)-2-(4-Chloro-phenyl)-cyclopropylcarbamoyl]-4-fluoro-pyrrolidin-1-yl}-2-oxo-ethyl)-1H-pyrazolo[3,4-c]pyridine-3-carboxylic acid amide]
0.045 µM | Cc1cc2c(C(N)=O)nn(CC(=O)N3[C@@H]4C[C@@H]4C[C@H]3C(=O)N[C@@H]3C[C@H]3c3ccccc3Cl)c2cn1 [Example 73, 1-(2-{(1R,3S,5R)-3-[(1R,2S)-2-(2-Chloro-phenyl)-cyclopropylcarbamoyl]-2-aza-bicyclo[3.1.0]hex-2-yl}-2-oxo-ethyl)-5-methyl-1H-pyrazolo[3,4-c]pyridine-3-carboxylic acid amide]

Structure (SMILES) | IC50
CC(=O)c1nn(CC(=O)N2[C@@H]3C[C@@H]3C[C@H]2C(=O)N[C@@H]2C[C@H]2c2ccccc2F)c2cc(C(=O)O)ccc12 [Example 87, 3-Acetyl-1-(2-{(1R,3S,5R)-3-[(1R,2S)-2-(2-fluoro-phenyl)-cyclopropylcarbamoyl]-2-aza-bicyclo[3.1.0]hex-2-yl}-2-oxo-ethyl)-1H-indazole-6-carboxylic acid] | 0.046 µM
